Measured values reported in patent publication US20240239772A1, “PROTEASE INHIBITORS AND METHODS OF USE” (The Cleveland Clinic Foundation, priority 2021, published 2024).
Read-outs that look alike come from different tables or passages of the source.

Assays:
SARS-CoV-1 3CLpro = SARS-CoV-1 3CLpro (Severe acute respiratory syndrome coronavirus (SARS-CoV), UniProt P0C6X7); type: biochemical
SARS-CoV-2 3CLpro = SARS-CoV-2 3CLpro (Severe acute respiratory syndrome coronavirus 2 (2019-nCoV) (SARS-CoV-2), UniProt P0DTD1); assay: biochemical; type: biochemical; conditions: read-out: SARS-CoV-2 IC50
SARS-CoV-2 [1] = assay: microbe, parasite or virus in culture; type: cell-based; conditions: read-out: CPE Inhibition Assay EC50
SARS-CoV-2 [2] = assay: microbe, parasite or virus in culture; type: cell-based
[3] = Severe acute respiratory syndrome coronavirus 2, Vero C1008, 68 h
[4] = Severe acute respiratory syndrome coronavirus 2, Vero C1008, read-out: Plaque Reduction Assay EC50

SMILES	IC50 (SARS-CoV-1 3CLpro)	IC50 (SARS-CoV-2 3CLpro)	EC50 (SARS-CoV-2 [1]; [3])	EC50 (SARS-CoV-2 [2]; Severe acute respiratory syndrome coronavirus 2, Vero C1008, Vero E6 ACE2 cells, approximately 50 PFUs SARS-CoV-2, read-out: Plaque Reduction Assay EC50)	EC50 (SARS-CoV-2 [2]; [4])	EC50 (SARS-CoV-2 [1]; Severe acute respiratory syndrome coronavirus 2, Vero C1008, Vero E6 ACE2 cells, 100 TCID50 SARS-CoV-2, 68 h after infection)
O=C(Cn1nnc2ccccc21)N(CC1CCOC1)c1ccc(-c2cccnc2)cc1 (centres unmarked) [Compound 26, 2-(1H-Benzo[d][1,2,3]triazol-1-yl)-N-(4-(pyridin-3-yl)phenyl)-N-((tetrahydrofuran-3-yl)methyl)acetamide]	20500 ± 1590 nM	23000 ± 1380 nM	–	–	–	–
O=C(Cn1nnc2ccccc21)N(Cc1ccc(Cl)c(Cl)c1)c1ccc(-c2cccnc2)cc1 [Compound 30, 2-(Benzotriazol-1-yl)-N-[(3,4-dichlorophenyl)methyl]-N-[4-(3-pyridyl)phenyl]acetamide]	> 200000 nM	> 200000 nM	–	–	–	–
O=C(Cn1nnc2ccccc21)N(Cc1cc(F)cc(Cl)c1)c1ccc(-c2cccnc2)cc1 [Compound 31, 2-(Benzotriazol-1-yl)-N-[(3-chloro-5-fluoro-phenyl)methyl]-N-[4-(3-pyridyl)phenyl]acetamide]	74 ± 10 nM	119 ± 5 nM	–	–	–	–
O=C(Cn1nnc2ccccc21)N(Cc1cccc(Cl)c1)c1ccc(-c2ccc[nH]c2=O)cc1 [Compound 35, 2-(1H-Benzo[d][1,2,3]triazol-1-yl)-N-(3-chlorobenzyl)-N-(4-(2-oxo-1,2-dihydropyridin-3-yl)phenyl)acetamide]	–	746 ± 98 nM	8770 ± 1140 nM	16700 ± 2440 nM	–	–
O=C(Cn1nnc2ccccc21)N(Cc1cccc(Cl)c1)c1ccc(-c2cn[nH]c2)cc1 [Compound 36, N-(4-(1H-Pyrazol-4-yl)phenyl)-2-(1H-benzo[d][1,2,3]triazol-1-yl)-N-(3-chlorobenzyl)acetamide]	–	270 ± 67 nM	1980 ± 240 nM	–	3310 ± 100 nM	–
COc1cc(N(Cc2cccc(Cl)c2)C(=O)Cn2nnc3ccccc32)ccc1-c1cn[nH]c1 [Compound 37, 2-(Benzotriazol-1-yl)-N-[(3-chlorophenyl)methyl]-N-[3-methoxy-4-(1H-pyrazol-4-yl)phenyl]acetamide]	–	328 ± 27 nM	2930 ± 280 nM	–	3240 ± 270 nM	–
COc1cc(-c2cn[nH]c2)ccc1N(Cc1cccc(Cl)c1)C(=O)Cn1nnc2ccccc21 [Compound 38, 2-(Benzotriazol-1-yl)-N-[(3-chlorophenyl)methyl]-N-[2-methoxy-4-(1H-pyrazol-4-yl)phenyl]acetamide]	–	197 ± 50 nM	–	–	2010 ± 490 nM	2300 ± 330 nM
O=C(Cn1nnc2ccccc21)N(Cc1cccc(Cl)c1)c1ccc(-c2cn[nH]c2)nc1 [Compound 39, 2-(Benzotriazol-1-yl)-N-[(3-chlorophenyl)methyl]-N-[6-(1H-pyrazol-4-yl)-3-pyridyl]acetamide]	336 ± 65 nM	333 ± 93 nM	3810 ± 180 nM	–	4650 ± 110 nM	–
O=C(Cn1nnc2ccccc21)N(Cc1cccc(Cl)c1)c1ccc(-c2cn[nH]c2)cn1 [Compound 40, 2-(Benzotriazol-1-yl)-N-[(3-chlorophenyl)methyl]-N-[5-(1H-pyrazol-4-yl)-2-pyridyl]acetamide]	214 ± 63 nM	171 ± 29 nM	1910 ± 300 nM	–	3390 ± 210 nM	–
O=C(Nc1ccc(N(Cc2ccsc2)C(=O)Cn2nnc3ccccc32)cc1)C1CC1 [ML300, N-(4-(2-(1H-benzo[d][1,2,3]triazol-1-yl)-N-(thiophen-3-ylmethyl)acetamido)phenyl)cyclopropanecarboxamide, reference compound]	–	4990 ± 620 nM	19900 ± 6320 nM	–	28200 ± 1300 nM	–
